Source: patent publication US20030083313A1, “Means of tumor therapy” (priority 1998, published 2003)

How the values were obtained:
[1] = tested on: breast cancer 3366/Tam; assay: Therapeutic effectivity on tamoxifen-resistant breast cancer xenograft, tumor growth as T/C; format: in vivo; settings: 3366/Tam tumor on female NMRI nude mice; dose Tam/Lipid mg/kg/injection as per group (50/0, 50/25, 0/25), twice a day for 4 weeks
Protocol: (§1) Tam liposomes according to Example 4 are used for the in vivo treatment test. As a tumor model, breast cancer 3366/Tam is transplanted onto female NMRI nude mice and the treatment started when the tumor is palpable. The animals are given one dose of liposomes with 50 mg/kg Tam (and correspondingly 25 mg/kg OPP) twice a day for 4 weeks. As controls, liposomes containing no Tam are administered, in addition one group being treated with free Tam. The tumor growth in relation to the control group (physiological salt solution) is determined and portrayed as a percentage T/C, as shown in FIG. 1 and in Table 1. […] The living cells were determined with the MTT assay.

[2] = Alteration of body weight in the in vivo treatment test; settings: 3366/Tam-bearing female NMRI nude mice, dose Tam/Lipid mg/kg/injection as per group, twice a day for 4 weeks
Protocol: as §1

What does the source list for `CC/C(=C(\c1ccccc1)c1ccc(OCCN(C)C)cc1)c1ccccc1` [tamoxifen]?
T/C (tumor growth in relation to the control group, physiological salt solution) [1]: 91%; Alteration of body weight % (day 29/51) [2]: −5%
